From ChEMBL document CHEMBL1146318, “Synthesis and SAR of novel 2-arylthiazolidinones as selective analgesic N-type calcium channel blockers” (Bioorg Med Chem Lett, 2007)
pIC50: −log10 of the molar value.

How the values were obtained:
Homo sapiens = species: Homo sapiens; assay: Selectivity for calcium channel Cav2.2 over calcium channel L type
[1] = target: Voltage-dependent N-type calcium channel subunit alpha-1B (Homo sapiens, UniProt Q00975); assay: Inhibition of calcium channel Cav2.2 in IMR32 cells; assay type: cell-based, IMR-32
Chain of Voltage-dependent N-type calcium channel subunit alpha-1B (Q00975 whole entry): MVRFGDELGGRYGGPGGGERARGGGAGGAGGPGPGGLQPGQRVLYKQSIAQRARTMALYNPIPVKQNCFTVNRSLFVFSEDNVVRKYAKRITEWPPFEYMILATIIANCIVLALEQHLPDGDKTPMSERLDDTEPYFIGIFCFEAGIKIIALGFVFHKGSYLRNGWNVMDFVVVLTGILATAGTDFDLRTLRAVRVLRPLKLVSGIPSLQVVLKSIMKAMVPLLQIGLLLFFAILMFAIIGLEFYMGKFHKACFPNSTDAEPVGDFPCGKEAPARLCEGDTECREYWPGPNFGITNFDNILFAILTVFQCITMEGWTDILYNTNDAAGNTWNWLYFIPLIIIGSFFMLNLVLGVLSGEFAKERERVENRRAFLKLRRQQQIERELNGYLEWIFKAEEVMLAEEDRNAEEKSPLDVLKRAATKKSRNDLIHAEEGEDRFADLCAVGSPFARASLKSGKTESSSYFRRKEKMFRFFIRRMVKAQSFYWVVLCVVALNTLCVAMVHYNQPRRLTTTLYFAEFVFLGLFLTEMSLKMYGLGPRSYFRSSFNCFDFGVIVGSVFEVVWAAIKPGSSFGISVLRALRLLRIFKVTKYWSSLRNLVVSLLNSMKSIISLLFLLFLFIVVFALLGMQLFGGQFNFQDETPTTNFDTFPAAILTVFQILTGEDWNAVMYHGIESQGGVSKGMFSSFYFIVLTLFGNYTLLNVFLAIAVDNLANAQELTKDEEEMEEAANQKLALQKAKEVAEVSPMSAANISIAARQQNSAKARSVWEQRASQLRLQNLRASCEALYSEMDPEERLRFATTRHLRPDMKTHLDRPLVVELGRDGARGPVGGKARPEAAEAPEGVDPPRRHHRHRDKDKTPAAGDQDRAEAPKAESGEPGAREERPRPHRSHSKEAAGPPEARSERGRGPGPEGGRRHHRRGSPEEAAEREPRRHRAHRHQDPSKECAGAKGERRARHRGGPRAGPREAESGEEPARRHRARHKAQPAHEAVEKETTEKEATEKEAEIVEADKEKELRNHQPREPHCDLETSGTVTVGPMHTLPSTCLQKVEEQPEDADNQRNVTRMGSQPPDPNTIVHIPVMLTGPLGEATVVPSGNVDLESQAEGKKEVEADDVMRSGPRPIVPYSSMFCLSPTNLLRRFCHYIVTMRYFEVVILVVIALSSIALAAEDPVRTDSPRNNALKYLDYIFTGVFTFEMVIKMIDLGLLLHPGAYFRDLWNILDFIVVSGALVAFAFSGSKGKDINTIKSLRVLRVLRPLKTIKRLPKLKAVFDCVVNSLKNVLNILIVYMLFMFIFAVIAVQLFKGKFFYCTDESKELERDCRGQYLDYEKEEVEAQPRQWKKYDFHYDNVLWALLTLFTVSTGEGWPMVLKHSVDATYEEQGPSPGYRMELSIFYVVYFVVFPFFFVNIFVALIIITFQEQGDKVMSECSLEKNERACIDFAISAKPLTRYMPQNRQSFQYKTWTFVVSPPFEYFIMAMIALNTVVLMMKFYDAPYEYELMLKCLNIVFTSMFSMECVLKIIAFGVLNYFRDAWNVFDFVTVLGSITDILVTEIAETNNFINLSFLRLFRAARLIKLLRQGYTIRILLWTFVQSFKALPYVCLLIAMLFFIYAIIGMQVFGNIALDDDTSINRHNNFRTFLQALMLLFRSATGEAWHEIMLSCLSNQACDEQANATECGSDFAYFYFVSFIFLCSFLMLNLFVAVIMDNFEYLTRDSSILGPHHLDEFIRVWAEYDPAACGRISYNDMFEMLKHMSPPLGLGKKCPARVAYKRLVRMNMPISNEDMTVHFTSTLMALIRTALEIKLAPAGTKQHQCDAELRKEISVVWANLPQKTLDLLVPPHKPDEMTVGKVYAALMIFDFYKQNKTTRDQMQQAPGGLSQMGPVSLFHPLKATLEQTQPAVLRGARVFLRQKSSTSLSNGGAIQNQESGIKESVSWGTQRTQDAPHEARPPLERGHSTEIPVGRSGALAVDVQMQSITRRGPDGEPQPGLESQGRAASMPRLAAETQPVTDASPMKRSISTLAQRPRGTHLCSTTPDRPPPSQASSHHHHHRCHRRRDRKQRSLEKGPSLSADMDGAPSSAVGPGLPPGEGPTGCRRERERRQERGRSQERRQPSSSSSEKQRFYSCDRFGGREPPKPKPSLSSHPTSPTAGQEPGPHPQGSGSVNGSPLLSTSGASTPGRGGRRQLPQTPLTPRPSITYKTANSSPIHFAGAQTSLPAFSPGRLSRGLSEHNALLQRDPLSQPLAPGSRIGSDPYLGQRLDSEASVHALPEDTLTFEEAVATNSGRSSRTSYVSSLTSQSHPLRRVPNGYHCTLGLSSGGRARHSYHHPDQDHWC

[2] = Inhibition of calcium channel L type in IMR32 cells; assay type: cell-based, Homo sapiens; details: imr-32

Row | Compound | Ratio IC50 (Homo sapiens) | pIC50 [1] | pIC50 [2]
1 | CC(C)CN1C(=O)C[S+]([O-])C1c1cnccc1-c1ccc(Br)cc1 (stereo unspecified) | 3.8 | 5.40 | 4.82
2 | Cc1ccc(-c2ccncc2[C@H]2SCC(=O)N2CC(C)C)cc1 (stereo in doubt; 61) [listing 1 of 2 here] | – | 6.14 | 4.63
3 | CC(C)CN1C(=O)CSC1c1ccncc1-c1ccc(Br)cc1 (stereo unspecified) | 6.1 | 6.30 | 5.51
4 | O=C1CSC(c2cnccc2-c2ccc(Br)cc2)N1C1CC1 (stereo unspecified) | 3.6 | 5.89 | 5.33
5 | Fc1ccc(C(c2ccc(F)cc2)N2CCN(C/C=C/c3ccccc3)CC2)cc1 [FLUNARIZINE] | 0.5 | 5.78 | 6.11
6 | C=Cc1ccc(-c2cnccc2C2SCC(=O)N2CC(C)C)cc1 (stereo unspecified) | 7.8 | 6.28 | 5.38
7 | CC(C)CN1C(=O)COC1c1cnccc1-c1ccc(Br)cc1 (stereo unspecified) | 6.6 | 5.35 | 4.53
8 | CC(C)CN1C(=O)CS[C@@H]1c1cnccc1-c1ccc(C(F)(F)F)cc1 (stereo in doubt; 58) [listing 1 of 2 here] | – | 5.48 | 4.89
9 | COc1ccc(-c2cnccc2C2SCC(=O)N2CC(C)C)cc1 (stereo unspecified) | 9.5 | 5.85 | 4.86
10 | O=C1CSC(c2ccncc2-c2ccc(C(F)(F)F)cc2)N1C1CCCC1 (stereo unspecified) | 3.1 | 5.86 | 5.37
11 | Cc1ccc(-c2ccncc2[C@H]2SCC(=O)N2CC(C)C)cc1 (stereo in doubt; 60) [listing 1 of 2 here] | 2.9 | – | –
12 | CC(C)CN1C(=O)CSC1c1cccnc1-c1ccc(Cl)cc1 (stereo unspecified) | 5.9 | 5.90 | 5.13
13 | C=Cc1ccc(-c2ncccc2C2SCC(=O)N2CC(C)C)cc1 (stereo unspecified) | 3.2 | 5.88 | 5.37
14 | CC(C)CN1C(=O)CSC1c1ccncc1-c1ccc(Cl)cc1 (stereo unspecified) | 7.9 | 6.24 | 5.34
15 | CCc1ccc(-c2ccncc2C2SCC(=O)N2CC(C)C)cc1 (stereo unspecified) | 6.3 | 6.06 | 5.26
16 | CC(C)CN1C(=O)CSC1c1ccncc1-c1ccc(F)cc1 (stereo unspecified) | 2.8 | 5.38 | 4.93
17 | COc1ccc(-c2ncccc2C2SCC(=O)N2CC(C)C)cc1 (stereo unspecified) | 2.3 | 5.05 | 4.69
18 | COc1ccc(CN2CCN(C(c3ccc(F)cc3)c3ccc(F)cc3)CC2)c(OC)c1OC [LOMERIZINE] | 0.6 | 5.61 | 5.83
19 | Cc1ccc(-c2ccncc2C2SCC(=O)N2CC(C)C)cc1 (stereo unspecified) | 16.7 | 6.31 | 5.09
20 | O=C1CSC(c2cnccc2-c2ccc(Br)cc2)N1C1CCCCC1 (stereo unspecified) | 1.5 | 5.88 | 5.70
21 | CC(C)CN1C(=O)CS[C@@H]1c1cnccc1-c1ccc(C(F)(F)F)cc1 (stereo in doubt; 59) [listing 1 of 2 here] | 29.1 | – | –
22 | CC(C)CN1C(=O)CSC1c1cnccc1-c1ccccc1 (stereo unspecified) | 4.1 | 5.40 | 4.79
23 | Cc1ccc(-c2ncccc2C2SCC(=O)N2CC(C)C)cc1 (stereo unspecified) | 6.4 | 5.71 | 4.90

Row | Compound | Ratio IC50 (Homo sapiens) | pIC50 [1] | pIC50 [2]
24 | O=C1CSC(c2ccc(F)c(Br)c2)N1CCc1ccccn1 (stereo unspecified) | 5.6 | 5.77 | 5.02
25 | CCC(C)N1C(=O)CSC1c1cnccc1-c1ccc(Br)cc1 (stereo unspecified) | 11.2 | 6.68 | 5.63
26 | CC(C)CNC(=O)CC1SC(c2ccc(F)c(Br)c2)N(CCc2ccccn2)C1=O (stereo unspecified) | 2.2 | 5.87 | 5.53
27 | CC(C)CN1C(=O)CS[C@@H]1c1cnccc1-c1ccc(C(F)(F)F)cc1 (stereo in doubt; 58) [listing 2 of 2 here] | 3.9 | – | –
28 | CC(C)CN1C(=O)CSC1c1cnccc1-c1ccc(F)cc1 (stereo unspecified) | 5.2 | 5.89 | 5.18
29 | O=C1CSC(c2cccc(C(F)(F)F)c2)N1CCc1ccccn1 (stereo unspecified) | 4.8 | 5.62 | 4.94
30 | O=C1C[S+]([O-])C(c2ccc(F)c(Br)c2)N1CCc1ccccn1 (stereo unspecified) | – | 4.53 | < 4.52
31 | CC(C)CN1C(=O)CSC1c1cccnc1-c1ccc(F)cc1 (stereo unspecified) | 2.6 | 5.31 | 4.89
32 | Cc1ccc(-c2cnccc2C2SCC(=O)N2CC(C)C)cc1 (stereo unspecified) | 13.6 | 6.23 | 5.10
33 | CC(C)CN1C(=O)CSC1c1cnccc1-c1ccc(Cl)cc1 (stereo unspecified) | 3.6 | 6.22 | 5.66
34 | O=C1CSC(c2cnccc2-c2ccc(Br)cc2)N1C1CCCC1 (stereo unspecified) | 16.3 | 6.20 | 4.99
35 | CC(C)CN1C(=O)CS[C@@H]1c1cnccc1-c1ccc(C(F)(F)F)cc1 (stereo in doubt; 59) [listing 2 of 2 here] | – | 6.11 | 4.64
36 | CC(C)CN1C(=O)CSC1c1cnccc1-c1ccc(C(F)(F)F)cc1 (stereo unspecified) | 9.6 | 5.97 | 4.99
37 | CN(C)c1ccc(-c2cnccc2C2SCC(=O)N2C2CCCC2)cc1 (stereo unspecified) | 1.7 | 4.97 | 4.74
38 | CC(C)CN1C(=O)CSC1c1cccnc1-c1ccc(Br)cc1 (stereo unspecified) | 8.9 | 6.15 | 5.21
39 | Cc1ccc(-c2ccncc2[C@H]2SCC(=O)N2CC(C)C)cc1 (stereo in doubt; 61) [listing 2 of 2 here] | 31.8 | – | –
40 | O=C1CS(=O)(=O)C(c2ccc(F)c(Br)c2)N1CCc1ccccn1 (stereo unspecified) | – | 5.09 | < 4.52
41 | CC(C)CN1C(=O)CSC1c1cccnc1-c1ccc(C(F)(F)F)cc1 (stereo unspecified) | 9.7 | 6.25 | 5.26
42 | CC(C)CN1C(=O)CSC1c1cnccc1-c1ccc(Br)cc1 (stereo unspecified) | 12.8 | 6.18 | 5.08
43 | Cc1ccc(-c2ccncc2[C@H]2SCC(=O)N2CC(C)C)cc1 (stereo in doubt; 60) [listing 2 of 2 here] | – | 5.35 | 4.89
44 | CC(C)CNC(=O)CC1SC(c2cccc(C(F)(F)F)c2)N(CCc2ccccn2)C1=O (stereo unspecified) | 1.6 | 5.89 | 5.68
45 | C=Cc1ccc(-c2ccncc2C2SCC(=O)N2CC(C)C)cc1 (stereo unspecified) | 19.5 | 6.29 | 5.00
